This note sets out measurements from patent publication US20080317857A1, “V-Atpase Inhibitors of Use in the Treatment of Septic Shock” (Brane Discovery S.r.l., priority 2005, published 2008).

For one test, the system named is Lymphocytes. Description: Chemokine-induced rapid adhesion of lymphocytes to ICAM-1 (LFA-1 ligand). Type of test: cell-based. Particulars: Homo sapiens, Lymphocyte, read-out: Inhibition of Adhesion (%) Lymphocytes (MIP3-β) (converted); for inhibition at 25 µM: [cpd] 25 μM; for inhibition at 50 µM: [cpd] 50 μM; for inhibition at 100 µM: [cpd] 100 μM. How it is done:
(§1) Adhesion was performed on purified integrin ligands and was evaluated as reported in Constantin G. et al., Immunity, 16, 759-769, 2000. Briefly, primary naïve lymphocytes, polymorphonuclear neutrophils (PMNs) or monocytes were isolated form healthy donors. In other experiments, murine autoreactive T cells were obtained from SJL mice immunized with PLP139-151 as described (Piccio L. et al., J. Immunol. 168, 1940-1949, 2002). Cells were resuspended at 4×10^6/ml in PBS, CaCl2, MgCl2 1 mM, 10% FCS, pH 7.2. Adhesion assays were performed on eighteen well glass slides coated overnight at 4° C. with ligands for CR3 (fibrinogen) or LFA-1 (ICAM-1). 20 μl of cell suspension were added to the wells and stimulated at 37° C. with 5 μl of agonists prior to washing, fixation and computer-assisted enumeration of bound cells.
(§2) Integrin activation was measured as induction of rapid adhesion triggered by the classical chemoattractant N-formyl-L-methionyl-L-leucyl-phenylalanine (fMLP) (100 nM) or by the CC chemokine MIP3β (CCL19, 1 μM). PMNs and monocytes were triggered to adhere to fibrinogen (CR3 ligand); naive human lymphocytes or murine encephalitogenic T cells were triggered to adhere to ICAM-1 (LFA-1 ligand). Triggered adhesion was evaluated after 2 min of stimulation under static conditions. The cells were pretreated at 37° C. for 30-60 min with the indicated concentrations of the test compound. Results are expressed as percentage of inhibition over control (=100%) and are the mean of three experiments in the case of human leukocytes. Results are expressed as mean counts and are the mean counts±S.D of three experiments and are the mean of three experiments in the case of murine encephalitogenic lymphocytes.
(§3) Integrin activation was measured as induction of rapid adhesion triggered by the “classical” chemoattractant fMLP (100 nM) or by the CC chemokine MIP3β(CCL19, 1 μM). PMNs were triggered to adhere to fibrinogen (CR3 ligand); lymphocytes were triggered to adhere to ICAM-1 (LFA-1 ligand).

For the next test, the system named is PMNs. Description: Chemoattractant-induced rapid adhesion of PMNs to fibrinogen (CR3 ligand). Type of test: cell-based. Particulars: Homo sapiens, read-out: Inhibition of Adhesion (%) PMNs (fMLP) (converted); for inhibition at 25 µM: [cpd] 25 μM; for inhibition at 50 µM: [cpd] 50 μM; for inhibition at 100 µM: [cpd] 100 μM. How it is done:
as §1, §2, §3

Test [1] concerns encephalitogenic lymphocytes. Description: Chemokine-induced adhesion of murine encephalitogenic T cells to ICAM-1. It is filed as cell-based, murine (SJL mice). Particulars: NT control in the same cell. How it is done: as §1, §2
Chemokines trigger rapid arrest of lymphocytes in blood vessels through pertussis toxin-sensitive G protein coupled receptors. […] Autoreactive lymphocytes were then stimulated with 1 μM CCL19 (MIP-3beta) for 3 min.

Consider `COc1ccc(-c2c3n(c4cc(OC)c(OC)cc24)CCOC3)cc1` [Example 76], for which, in the test on Lymphocytes, the inhibition at 25 µM was 30.1%, the inhibition at 50 µM is 40.3% and the inhibition at 100 µM is 48.3%. In the test on PMNs, the inhibition at 25 µM is 25.6%, the inhibition at 50 µM is 35.7% and the inhibition at 100 µM was 66.3%.
Take `CCOC(=O)c1[nH]c2cc(OC)c(OC)cc2c1-c1ccncc1` [Example 81]: in the test on Lymphocytes, the inhibition at 25 µM was 4.5%, the inhibition at 50 µM was 12.7% and the inhibition at 100 µM is 34.9%. Also, in test [1] ([cpd] 5 μM), the “Chemokine-induced Adhesion in encephalitogenic lymphocytes, Mean counts ± S.D., in absence of MIP3-β stimulation” value is 56.2 ± 11.1 and the “Chemokine-induced Adhesion in encephalitogenic lymphocytes, Mean counts ± S.D., in presence of MIP3-β stimulation” value was 84.5 ± 8.8. In addition, in test [1] ([cpd] 50 μM), the “Chemokine-induced Adhesion in encephalitogenic lymphocytes, Mean counts ± S.D., in absence of MIP3-β stimulation” value is listed as 41.3 ± 3.6 and the “Chemokine-induced Adhesion in encephalitogenic lymphocytes, Mean counts ± S.D., in presence of MIP3-β stimulation” value was 99.2 ± 5.0. For the same compound, in the test with PMNs, the inhibition at 25 µM is 14.4%, the inhibition at 50 µM was 0.8% and the inhibition at 100 µM was 0%.
For the compound `COc1ccc(-c2c(-c3nnco3)[nH]c3cc(OC)c(OC)cc23)cc1` [Example 26], in the test with Lymphocytes, the inhibition at 25 µM is 8.7%, the inhibition at 50 µM is 21.9% and the inhibition at 100 µM is 26.7%. In test [1] ([cpd] 5 μM), the “Chemokine-induced Adhesion in encephalitogenic lymphocytes, Mean counts ± S.D., in absence of MIP3-β stimulation” value is recorded as 93.1 ± 7.5 and the “Chemokine-induced Adhesion in encephalitogenic lymphocytes, Mean counts ± S.D., in presence of MIP3-β stimulation” value is recorded as 125.9 ± 7.2. In test [1] ([cpd] 50 μM), the “Chemokine-induced Adhesion in encephalitogenic lymphocytes, Mean counts ± S.D., in absence of MIP3-β stimulation” value is 49.8 ± 5.9 and the “Chemokine-induced Adhesion in encephalitogenic lymphocytes, Mean counts ± S.D., in presence of MIP3-β stimulation” value is recorded as 98.9 ± 12.0. Moreover, in the test with PMNs, the inhibition at 25 µM is 34.7%, the inhibition at 50 µM is 50.5% and the inhibition at 100 µM is 57.5%.
As to `COC(=O)c1c(-c2ccc(OC)cc2)c2cc(OC)c(OC)cc2n1CCN1CCCC1` [Example 52], the inhibition at 25 µM in the test with Lymphocytes was 45.9%; with PMNs, 0.8%. Also, the results for the inhibition at 50 µM with Lymphocytes and with PMNs were 53.5% and 11%, respectively. Further, the inhibition at 100 µM with Lymphocytes was 58.9%; in the test with PMNs it was 6.1%. Further, the “Chemokine-induced Adhesion in encephalitogenic lymphocytes, Mean counts ± S.D., in absence of MIP3-β stimulation” value in test [1] ([cpd] 1 μM) is on record as 51.9 ± 3.9; in test [1] ([cpd] 5 μM), 31.8 ± 3.1; in test [1] ([cpd] 50 μM), 24.9 ± 12.8. The “Chemokine-induced Adhesion in encephalitogenic lymphocytes, Mean counts ± S.D., in presence of MIP3-β stimulation” value is listed as 118.9 ± 4.0 in test [1] ([cpd] 1 μM), 103.2 ± 10.2 in test [1] ([cpd] 5 μM) and 82.3 ± 8.1 in test [1] ([cpd] 50 μM).
As for `COc1ccc(-c2c3n(c4cc(OC)c(OC)cc24)CCN(S(=O)(=O)C(C)C)C3)cc1` [Example 68], in test [1] ([cpd] 5 μM), the “Chemokine-induced Adhesion in encephalitogenic lymphocytes, Mean counts ± S.D., in absence of MIP3-β stimulation” value was found to be 62.3 ± 9.0 and the “Chemokine-induced Adhesion in encephalitogenic lymphocytes, Mean counts ± S.D., in presence of MIP3-β stimulation” value came to 102.8 ± 5.5. Also, in test [1] ([cpd] 50 μM), the “Chemokine-induced Adhesion in encephalitogenic lymphocytes, Mean counts ± S.D., in absence of MIP3-β stimulation” value is recorded as 33.5 ± 6.0 and the “Chemokine-induced Adhesion in encephalitogenic lymphocytes, Mean counts ± S.D., in presence of MIP3-β stimulation” value turned out to be 74.3 ± 3.9.
As for `CCCn1c(C#N)c(-c2ccccc2)c2cc(OC)c(OC)cc21` [Example 50], in test [1] ([cpd] 5 μM), the “Chemokine-induced Adhesion in encephalitogenic lymphocytes, Mean counts ± S.D., in absence of MIP3-β stimulation” value worked out at 81.7 ± 11.9 and the “Chemokine-induced Adhesion in encephalitogenic lymphocytes, Mean counts ± S.D., in presence of MIP3-β stimulation” value amounted to 124.5 ± 8.1. Moreover, in test [1] ([cpd] 50 μM), the “Chemokine-induced Adhesion in encephalitogenic lymphocytes, Mean counts ± S.D., in absence of MIP3-β stimulation” value is 62.0 ± 4.0 and the “Chemokine-induced Adhesion in encephalitogenic lymphocytes, Mean counts ± S.D., in presence of MIP3-β stimulation” value was found to be 92.0 ± 3.0.
`COc1ccc(-c2c(C#N)n(CCN3CCOCC3)c3cc(OC)c(OC)cc23)cc1` [Example 56]: in the test on Lymphocytes, the inhibition at 25 µM is 0%, the inhibition at 50 µM was 12.6% and the inhibition at 100 µM was 72.8%. Besides, in test [1] ([cpd] 5 μM), the “Chemokine-induced Adhesion in encephalitogenic lymphocytes, Mean counts ± S.D., in absence of MIP3-β stimulation” value turned out to be 64.1 ± 9.9 and the “Chemokine-induced Adhesion in encephalitogenic lymphocytes, Mean counts ± S.D., in presence of MIP3-β stimulation” value came out at 92.3 ± 2.3. Besides, in test [1] ([cpd] 50 μM), the “Chemokine-induced Adhesion in encephalitogenic lymphocytes, Mean counts ± S.D., in absence of MIP3-β stimulation” value is listed as 49.7 ± 3.9 and the “Chemokine-induced Adhesion in encephalitogenic lymphocytes, Mean counts ± S.D., in presence of MIP3-β stimulation” value amounted to 79.4 ± 12.1. In the test on PMNs, the inhibition at 25 µM is 3.4%, the inhibition at 50 µM is 11.6% and the inhibition at 100 µM is 8.7%.
`COc1ccc(-c2c(C(N)=O)[nH]c3cc(OC)c(OC)cc23)cc1` [Example 14]: in the test on Lymphocytes, the inhibition at 25 µM was 30.9%, the inhibition at 50 µM is 70.9% and the inhibition at 100 µM is 91.8%. Further, in the test on PMNs, the inhibition at 25 µM is 62.8%, the inhibition at 50 µM was 83.9% and the inhibition at 100 µM is 94.9%.
For `COCCn1c(C(=O)OC)c(-c2ccc(OC)cc2)c2cc(OC)c(OC)cc21` [Example 39], in the test with Lymphocytes, the inhibition at 25 µM is 8.2%, the inhibition at 50 µM is 26.4% and the inhibition at 100 µM was 41.4%. In test [1] ([cpd] 5 μM), the “Chemokine-induced Adhesion in encephalitogenic lymphocytes, Mean counts ± S.D., in absence of MIP3-β stimulation” value was found to be 72.9 ± 8.8 and the “Chemokine-induced Adhesion in encephalitogenic lymphocytes, Mean counts ± S.D., in presence of MIP3-β stimulation” value is on record as 118.2 ± 10.0. In addition, in test [1] ([cpd] 50 μM), the “Chemokine-induced Adhesion in encephalitogenic lymphocytes, Mean counts ± S.D., in absence of MIP3-β stimulation” value is on record as 44.8 ± 1.9 and the “Chemokine-induced Adhesion in encephalitogenic lymphocytes, Mean counts ± S.D., in presence of MIP3-β stimulation” value is 104.4 ± 5.0. In addition, in the test with PMNs, the inhibition at 25 µM was 33.8%, the inhibition at 50 µM was 39.1% and the inhibition at 100 µM was 44.8%.
Turning to `COc1ccc(-c2c3n(c4cc(OC)c(OC)cc24)CCNC3)cc1` [Example 28], in the test with Lymphocytes, the inhibition at 25 µM was 16.7%, the inhibition at 50 µM is 34.8% and the inhibition at 100 µM was 49.1%. In test [1] ([cpd] 5 μM), the “Chemokine-induced Adhesion in encephalitogenic lymphocytes, Mean counts ± S.D., in absence of MIP3-β stimulation” value came out at 75.7 ± 9.0 and the “Chemokine-induced Adhesion in encephalitogenic lymphocytes, Mean counts ± S.D., in presence of MIP3-β stimulation” value is listed as 127.0 ± 5.0. Moreover, in test [1] ([cpd] 50 μM), the “Chemokine-induced Adhesion in encephalitogenic lymphocytes, Mean counts ± S.D., in absence of MIP3-β stimulation” value turned out to be 48.6 ± 2.9 and the “Chemokine-induced Adhesion in encephalitogenic lymphocytes, Mean counts ± S.D., in presence of MIP3-β stimulation” value was 118.8 ± 10.8. For the same compound, in the test on PMNs, the inhibition at 25 µM was 34.7%, the inhibition at 50 µM was 41% and the inhibition at 100 µM was 46.5%.

The inhibition is the change of the read-out against control, counted positive when it falls.
